Results published in patent US9006487B2, “Amine-containing lipids and uses thereof” (Massachusetts Institute of Technology, priority 2005, dated 2015).
One block for each compound: values may come before it.

Legend:
cos-7 cells = test: DNA transfection: luciferase expression relative to Lipofectamine 2000; format: cell-based; details: for luciferase expression (second part of table, values relative to LIPO2000): 300 ng of DNA per well; for Luciferase expression as a percentage of that achieved using Lipofectamine 2000: 300 ng Luciferase DNA per well, luciferase assay after 48 hours
How it was run: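 cos-7 cells were transfected with 300 ng/well luciferase DNA complexed with lipid at ratios from 2.5 to 25 w/w. Bright-Glo luminescence was read after 48 hours and converted to ng luciferase by standard curve. Data are percent of the Lipofectamine 2000 control (2.5 w/w).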

[1] = DNA delivery: raw luciferase expression (relative light units) of best-transfecting lipids; format: cell-based; details: 300 ng of DNA per well
Experimental: Raw values for luciferase expression (relative lights units) of best-transfecting lipids at lipid/DNA (w/w) ratios listed. 300 ng of DNA was added per well.

Raw values for luciferase expression ([1]; lipid/DNA 2.5 w/w): 5256861 relative lights units
Raw values for luciferase expression ([1]; lipid/DNA 5 w/w): 1231973 relative lights units
Compound: CCCCCCCCCCCCNC(=O)CCN(CCC(=O)NCCCCCCCCCCCC)CC(O)CO (stereo not shown) [ND24]
luciferase expression (second part of table, values relative to LIPO2000) (cos-7 cells; lipid/DNA 2.5 w/w): 157.6
luciferase expression (second part of table, values relative to LIPO2000) (cos-7 cells; lipid/DNA 5 w/w): 30.5
luciferase expression (second part of table, values relative to LIPO2000) (cos-7 cells; lipid/DNA 10 w/w): 2.4
luciferase expression (second part of table, values relative to LIPO2000) (cos-7 cells; lipid/DNA 15 w/w): 0.2
luciferase expression (second part of table, values relative to LIPO2000) (cos-7 cells; lipid/DNA 20 w/w): 0.0
luciferase expression (second part of table, values relative to LIPO2000) (cos-7 cells; lipid/DNA 25 w/w): 0.0

Raw values for luciferase expression ([1]; lipid/DNA 10 w/w): 834849 relative lights units
Raw values for luciferase expression ([1]; lipid/DNA 15 w/w): 1208120 relative lights units
Compound: CCCCCCCCCCCCCCCNC(=O)CCN(C)CCN(CCC(=O)NCCCCCCCCCCCCCCC)CCC(=O)NCCCCCCCCCCCCCCC [NG95]

Raw values for luciferase expression ([1]; lipid/DNA 2.5 w/w): 2473702 relative lights units
Raw values for luciferase expression ([1]; lipid/DNA 5 w/w): 1366194 relative lights units
Compound: CCCCCCCCCCCCCCNC(=O)CCN(CCC(=O)NCCCCCCCCCCCCCC)C(CO)CO [NF25]

Raw values for luciferase expression ([1]; lipid/DNA 2.5 w/w): 1814886 relative lights units
Raw values for luciferase expression ([1]; lipid/DNA 5 w/w): 1801431 relative lights units
Compound: CCCCCCCCCCCCCCNC(=O)CCN(CCCO)CCC(=O)NCCCCCCCCCCCCCC [NF20]

Raw values for luciferase expression ([1]; lipid/DNA 2.5 w/w): 1357355 relative lights units
Raw values for luciferase expression ([1]; lipid/DNA 5 w/w): 1521687 relative lights units
Raw values for luciferase expression ([1]; lipid/DNA 10 w/w): 1513703 relative lights units
Raw values for luciferase expression ([1]; lipid/DNA 15 w/w): 1223360 relative lights units
Compound: CCCCCCCCCCCCCCCNC(=O)CCN(CCC(=O)NCCCCCCCCCCCCCCC)CCN(CCO)CCO [NG86]

Raw values for luciferase expression ([1]; lipid/DNA 2.5 w/w): 778473 relative lights units
Raw values for luciferase expression ([1]; lipid/DNA 5 w/w): 227587 relative lights units
Compound: CCCCCCCCCCCCCCNC(=O)CCN(CCCOC)CCC(=O)NCCCCCCCCCCCCCC [NF1]

Raw values for luciferase expression ([1]; lipid/DNA 2.5 w/w): 2197484 relative lights units
Raw values for luciferase expression ([1]; lipid/DNA 5 w/w): 2087995 relative lights units
Compound: CCCCCCCCCCCCNC(=O)CCN(CCO)CCN(CCC(=O)NCCCCCCCCCCCC)CCC(=O)NCCCCCCCCCCCC [ND109]

Raw values for luciferase expression ([1]; lipid/DNA 2.5 w/w): 1192178 relative lights units
Raw values for luciferase expression ([1]; lipid/DNA 5 w/w): 838283 relative lights units
Compound: CCCCCCCCCCCCCCNC(=O)CCN(CCOC)CCC(=O)NCCCCCCCCCCCCCC [NF10]

Raw values for luciferase expression ([1]; lipid/DNA 2.5 w/w): 823764 relative lights units
Raw values for luciferase expression ([1]; lipid/DNA 5 w/w): 1005875 relative lights units
Compound: CCCCCCCCCCCCCCCNC(=O)CCN(CCCN(CCO)CCO)CCC(=O)NCCCCCCCCCCCCCCC [NG87]

Raw values for luciferase expression ([1]; lipid/DNA 2.5 w/w): 2910700 relative lights units
Raw values for luciferase expression ([1]; lipid/DNA 5 w/w): 42837 relative lights units
Compound: CCCCCCCCCCCCNC(=O)CCN(C)CCCN(CCC(=O)NCCCCCCCCCCCC)CCC(=O)NCCCCCCCCCCCC [ND96]

Raw values for luciferase expression ([1]; lipid/DNA 10 w/w): 595340 relative lights units
Raw values for luciferase expression ([1]; lipid/DNA 15 w/w): 1323915 relative lights units
Compound: CCCCCCCCCCCCCCCCNC(=O)CCN(CCC(=O)NCCCCCCCCCCCCCCCC)CCN(CCO)CCO [NP86]

Raw values for luciferase expression ([1]; lipid/DNA 2.5 w/w): 1443678 relative lights units
Raw values for luciferase expression ([1]; lipid/DNA 5 w/w): 33188 relative lights units
Compound: CCCCCCCCCCCCCCCCNC(=O)CCN(CCN(CCC(=O)NCCCCCCCCCCCCCCCC)C(C)C)C(C)C [NP62]

Raw values for luciferase expression ([1]; lipid/DNA 2.5 w/w): 774425 relative lights units
Raw values for luciferase expression ([1]; lipid/DNA 5 w/w): 1382667 relative lights units
Compound: CCCCCCCCCCCCNC(=O)CCN(CCC(=O)NCCCCCCCCCCCC)CCc1c[nH]cn1 [ND94]

Raw values for luciferase expression ([1]; lipid/DNA 2.5 w/w): 1993690 relative lights units
Raw values for luciferase expression ([1]; lipid/DNA 5 w/w): 1670695 relative lights units
Compound: CCCCCCCCCCCCCCNC(=O)CCN(CCCN1CCOCC1)CCC(=O)NCCCCCCCCCCCCCC [NF91]

Raw values for luciferase expression ([1]; lipid/DNA 10 w/w): 1207376 relative lights units
Raw values for luciferase expression ([1]; lipid/DNA 15 w/w): 1192838 relative lights units
Compound: CCCCCCCCCCCCCCCCNC(=O)CCN(CCCN(CCO)CCO)CCC(=O)NCCCCCCCCCCCCCCCC [NP87]

Raw values for luciferase expression ([1]; lipid/DNA 2.5 w/w): 1141469 relative lights units
Raw values for luciferase expression ([1]; lipid/DNA 5 w/w): 865897 relative lights units
Raw values for luciferase expression ([1]; lipid/DNA 10 w/w): 3031718 relative lights units
Raw values for luciferase expression ([1]; lipid/DNA 15 w/w): 1138429 relative lights units
Compound: CCCCCCCCCCCCCCNC(=O)CCN(C)CCCN(C)CCC(=O)NCCCCCCCCCCCCCC [NF63]

Raw values for luciferase expression ([1]; lipid/DNA 2.5 w/w): 1180418 relative lights units
Raw values for luciferase expression ([1]; lipid/DNA 5 w/w): 1543275 relative lights units
Raw values for luciferase expression ([1]; lipid/DNA 10 w/w): 1388102 relative lights units
Raw values for luciferase expression ([1]; lipid/DNA 15 w/w): 798342 relative lights units
Compound: CCCCCCCCCCCCCCCCNC(=O)CCN(C)CCCN(C)CCC(=O)NCCCCCCCCCCCCCCCC [NP63]

Raw values for luciferase expression ([1]; lipid/DNA 2.5 w/w): 3202948 relative lights units
Raw values for luciferase expression ([1]; lipid/DNA 5 w/w): 9767 relative lights units
Compound: CCCCCCCCCCCCCCCCNC(=O)CCN(CCC(=O)NCCCCCCCCCCCCCCCC)CCN(CCC(=O)NCCCCCCCCCCCCCCCC)CCC(=O)NCCCCCCCCCCCCCCCC [NP99]

Raw values for luciferase expression ([1]; lipid/DNA 2.5 w/w): 972002 relative lights units
Raw values for luciferase expression ([1]; lipid/DNA 5 w/w): 1184771 relative lights units
Compound: CCCCCCCCCCCCCCCNC(=O)CCN(CCC(=O)NCCCCCCCCCCCCCCC)CCC1CCCN1C (stereo not shown) [NG77]

Raw values for luciferase expression ([1]; lipid/DNA 2.5 w/w): 1452027 relative lights units
Raw values for luciferase expression ([1]; lipid/DNA 5 w/w): 765795 relative lights units
Compound: CCCCCCCCCCCCCCCNC(=O)CCN(CC)CCN(CC)CCC(=O)NCCCCCCCCCCCCCCC [NG61]

Compound: CCCCCCCCCCCCOC(=O)CCN(CCN(CCC(=O)OCCCCCCCCCCCC)C(C)C)C(C)C [LD62]
Luciferase expression as a percentage of that achieved using Lipofectamine 2000 (cos-7 cells; lipid/DNA 2.5 w/w): 0.4%
Luciferase expression as a percentage of that achieved using Lipofectamine 2000 (cos-7 cells; lipid/DNA 5 w/w): 0.4%
Luciferase expression as a percentage of that achieved using Lipofectamine 2000 (cos-7 cells; lipid/DNA 10 w/w): 0.4%
Luciferase expression as a percentage of that achieved using Lipofectamine 2000 (cos-7 cells; lipid/DNA 15 w/w): 0.4%
Luciferase expression as a percentage of that achieved using Lipofectamine 2000 (cos-7 cells; lipid/DNA 20 w/w): 0.4%
Luciferase expression as a percentage of that achieved using Lipofectamine 2000 (cos-7 cells; lipid/DNA 25 w/w): 0.5%

Compound: CCCCCCCCCCCCCCOC(=O)CCN(CCC(=O)OCCCCCCCCCCCCCC)CCN1CCCCC1 [LF82]
Luciferase expression as a percentage of that achieved using Lipofectamine 2000 (cos-7 cells; lipid/DNA 2.5 w/w): 0.4%
Luciferase expression as a percentage of that achieved using Lipofectamine 2000 (cos-7 cells; lipid/DNA 5 w/w): 0.3%
Luciferase expression as a percentage of that achieved using Lipofectamine 2000 (cos-7 cells; lipid/DNA 10 w/w): 0.7%
Luciferase expression as a percentage of that achieved using Lipofectamine 2000 (cos-7 cells; lipid/DNA 15 w/w): 0.5%
Luciferase expression as a percentage of that achieved using Lipofectamine 2000 (cos-7 cells; lipid/DNA 20 w/w): 0.6%
Luciferase expression as a percentage of that achieved using Lipofectamine 2000 (cos-7 cells; lipid/DNA 25 w/w): 0.8%

Compound: CCCCCCCCCCCCCCCOC(=O)CC[N+](C)(CCC(=O)OCCCCCCCCCCCCCCC)CCC1CCC[N+]1(C)C.[I-].[I-] (stereo not shown) [QG77]
Luciferase expression as a percentage of that achieved using Lipofectamine 2000 (cos-7 cells; lipid/DNA 2.5 w/w): 0.5%
Luciferase expression as a percentage of that achieved using Lipofectamine 2000 (cos-7 cells; lipid/DNA 5 w/w): 0.6%
Luciferase expression as a percentage of that achieved using Lipofectamine 2000 (cos-7 cells; lipid/DNA 10 w/w): 1.5%
Luciferase expression as a percentage of that achieved using Lipofectamine 2000 (cos-7 cells; lipid/DNA 15 w/w): 5.6%
Luciferase expression as a percentage of that achieved using Lipofectamine 2000 (cos-7 cells; lipid/DNA 20 w/w): 18.8%
Luciferase expression as a percentage of that achieved using Lipofectamine 2000 (cos-7 cells; lipid/DNA 25 w/w): 29.5%

Compound: CCCCCCCCCCOC(=O)CCN(CCC(=O)OCCCCCCCCCC)CC(O)CO (stereo not shown) [LB24]
Luciferase expression as a percentage of that achieved using Lipofectamine 2000 (cos-7 cells; lipid/DNA 2.5 w/w): 0.1%
Luciferase expression as a percentage of that achieved using Lipofectamine 2000 (cos-7 cells; lipid/DNA 5 w/w): 0.2%
Luciferase expression as a percentage of that achieved using Lipofectamine 2000 (cos-7 cells; lipid/DNA 10 w/w): 0.4%
Luciferase expression as a percentage of that achieved using Lipofectamine 2000 (cos-7 cells; lipid/DNA 15 w/w): 0.1%
Luciferase expression as a percentage of that achieved using Lipofectamine 2000 (cos-7 cells; lipid/DNA 20 w/w): 0.1%
Luciferase expression as a percentage of that achieved using Lipofectamine 2000 (cos-7 cells; lipid/DNA 25 w/w): 0.1%
